Experimental findings from the OligoGym collection are described below.

These antisense oligonucleotides have a phosphorothioate backbone; sugars and methylation of C are not fully specified.

Among the targets are NSMAF; AKT2; RAF1; IL1R1.
What all share (details): ASO
Further: test concentration or dose not given here.

As to AATCTCTCCTTGGAGTAG, the remaining target (mRNA or protein) (fraction of control) with NSMAF amounted to 0.61.

Sequence ACCAGGATGACTTTGCCA gave a remaining target (mRNA or protein) (fraction of control) with AKT2 of 0.25. Sequence ACCATCAACATCCACTTGCG showed a remaining target (mRNA or protein) (fraction of control) with RAF1 of no less than 1. Consider ACTCCATCACAAAGCACA, for which the remaining target (mRNA or protein) (fraction of control) with AKT2 amounted to 0.2. Turning to ACTCGTGAAGGTGTTCAG, the remaining target (mRNA or protein) (fraction of control) with NSMAF is 0.34.

Sequence ACTGTGTGAGCGACTTCA returned a remaining target (mRNA or protein) (fraction of control) with AKT2 of 0.38. On to AGATCCCGGAAGGTTCCT, for which, in the data set with NSMAF, the remaining target (mRNA or protein) (fraction of control) was 0.22. AGTCCTCCGTCTCCTGCAAC gave a remaining target (mRNA or protein) (fraction of control) in the data set with IL1R1 of 0.75. Same read-out and setting: next, AGTGCTACGGTGCGGGCGCG: 0.75.

In the data set with AKT2, AGTTGATGCTGAGGAAGA came in with a remaining target (mRNA or protein) (fraction of control) of 0.51.

Take ATACAGTCTCTCAAAGGA: the remaining target (mRNA or protein) (fraction of control) in the data set with NSMAF is 0.73.

The sequence ATCTGCCATAGAAGCATT yielded a remaining target (mRNA or protein) (fraction of control) in the data set with NSMAF of 0.56.

As to ATCTGTCCTCCTTGTCTC, the remaining target (mRNA or protein) (fraction of control) with NSMAF came out at 0.47. As for ATGACAAAGGTGTTGGGT, the remaining target (mRNA or protein) (fraction of control) with AKT2 turned out to be 0.29. The sequence ATGACCTCCTTGGCATCG came in with a remaining target (mRNA or protein) (fraction of control) with AKT2 of 0.18. ATGATGACTTCCTTTCGC gave a remaining target (mRNA or protein) (fraction of control) with AKT2 of 0.43. ATTCTTAAACCTGAGGGAGC: in the data set with RAF1, the remaining target (mRNA or protein) (fraction of control) was no less than 1.

Sequence CAAGAAAACCTGTATTCCTG came in with a remaining target (mRNA or protein) (fraction of control) with RAF1 of no less than 1.

For CAAGGAGTTTGAGATAGT, the remaining target (mRNA or protein) (fraction of control) with AKT2 amounted to 0.36. In turn, CACAGCATATACTCTGGT displayed a remaining target (mRNA or protein) (fraction of control) with NSMAF of 0.35. On to CACCGAGGAGCAGGCGCGGC, for which, in the data set with IL1R1, the remaining target (mRNA or protein) (fraction of control) was determined as 0.75. CACTGCAACCTCCGTCTCCC: the remaining target (mRNA or protein) (fraction of control) in the data set with IL1R1 worked out at 0.75. Sequence CACTTAGCCGTGCGTTGGTG gave a remaining target (mRNA or protein) (fraction of control) with IL1R1 of 0.5.

In the data set with RAF1, CAGCACTGCAAATGGCTTCC displayed a remaining target (mRNA or protein) (fraction of control) of 0.8. Sequence CAGTCGTGGAGGAGTCAC showed a remaining target (mRNA or protein) (fraction of control) in the data set with AKT2 of 0.42.

CATAACCTGGCCTGCAACGC: the remaining target (mRNA or protein) (fraction of control) with IL1R1 was determined as 0.75.

As for CATTCCATGAACTCTGCAAG, the remaining target (mRNA or protein) (fraction of control) with IL1R1 turned out to be 0.75. Still for that read-out and setting: the figure for CATTCCTGCCGCTCCCTGGG is 0.75. In the data set with NSMAF, CATTTTATCTGCCCTAAG gave a remaining target (mRNA or protein) (fraction of control) of 0.56. In turn, CCAATGAAGGAGCCGTCG displayed a remaining target (mRNA or protein) (fraction of control) with AKT2 of no less than 1.

In turn, CCAGCCTTCTTTGATGAC yielded a remaining target (mRNA or protein) (fraction of control) with AKT2 of 0.25. CCCGCTCCTCTGTGAAGA: the remaining target (mRNA or protein) (fraction of control) with AKT2 was found to be 0.08.

CCCTGTATGTGCTCCATTGA: the remaining target (mRNA or protein) (fraction of control) in the data set with RAF1 was found to be 0.38.

Sequence CCCTTCCATAAATGAACAGC gave a remaining target (mRNA or protein) (fraction of control) in the data set with IL1R1 of 0.75. On the same count and under the same terms, the figure for CCCTTGGGCTGTGGATGACT is 0.75.

CCGCATCCACTCCTCCCT: the remaining target (mRNA or protein) (fraction of control) in the data set with AKT2 stood at 0.12. The same measure, in the same setting: the figure for CCGCTGCTTGAGGCTGTT is 0.29. CCTCCACCCACGCTTATCCA had a remaining target (mRNA or protein) (fraction of control) with IL1R1 of 0.29.

Sequence CCTCCAGGGCTGCGGCGGCT gave a remaining target (mRNA or protein) (fraction of control) with IL1R1 of 0.75. CCTCCTTCATAGGTCAGG returned a remaining target (mRNA or protein) (fraction of control) with NSMAF of 0.74.

In the data set with RAF1, CCTGCTGGCTTCTCCTCCTC displayed a remaining target (mRNA or protein) (fraction of control) of 0.92.

CCTTTCTATTTTATATGG returned a remaining target (mRNA or protein) (fraction of control) with NSMAF of 0.74. Still for that read-out and setting: the figure for CGAGACTGCAAAATAGCT is 0.32. For CGCGCTCGGCTCCTCCCGGC, the remaining target (mRNA or protein) (fraction of control) with IL1R1 was determined as 0.75. Sequence CGCTCCTCCTCCCCGCGGCG returned a remaining target (mRNA or protein) (fraction of control) with RAF1 of 0.35. For the sequence CGGGAGGCGGTCACATTCGG, the remaining target (mRNA or protein) (fraction of control) in the data set with RAF1 was 0.25. Consider CGTGCCAGTGTGGAGTGAGG, for which the remaining target (mRNA or protein) (fraction of control) in the data set with IL1R1 turned out to be 0.23. CGTGCGTCCTCTGCGTGG returned a remaining target (mRNA or protein) (fraction of control) in the data set with AKT2 of 0.14. For the sequence CTACGGAGAAGTTGTTTA, the remaining target (mRNA or protein) (fraction of control) in the data set with AKT2 was determined as 0.42.

On to CTCCTTGGCATCGCTGGG, for which the remaining target (mRNA or protein) (fraction of control) with AKT2 stood at 0.29. With CTCGCCCGCTCCTCCTCCCC, the remaining target (mRNA or protein) (fraction of control) with RAF1 was no less than 1. As to CTCTCCACCGAGGAGCAGGC, in the data set with IL1R1, the remaining target (mRNA or protein) (fraction of control) was 0.75. Sequence CTCTTCTGGAGAAAGTCC gave a remaining target (mRNA or protein) (fraction of control) in the data set with NSMAF of 0.67.

In the case of CTGAGAGGGCTGAGATGCGG, the remaining target (mRNA or protein) (fraction of control) with RAF1 is no less than 1. As to CTGATTTCCAAAATCCCATG, the remaining target (mRNA or protein) (fraction of control) with RAF1 was 0.26.

In the case of CTGCAGCATGTAGCTCTC, in the data set with NSMAF, the remaining target (mRNA or protein) (fraction of control) was 0.83. CTGGCTTCTCCTCCTCCCCT displayed a remaining target (mRNA or protein) (fraction of control) with RAF1 of 0.95.

As for CTGGGCTGTTTGGTGCCTTA, the remaining target (mRNA or protein) (fraction of control) with RAF1 came to 0.8.
